Laboratory results published in patent publication US6821769B2, “IniB, iniA and iniC genes of mycobacteria and methods of use” (priority 1998, dated 2004).

Tested on: iniA
Assay type: cell-based, BCG

NNC(=O)c1ccncc1 [isoniazid]
Induction of iniA in isoniazid resistant BCG strain: Lack of iniA induction
Induction of iniA in isoniazid susceptible BCG strain: seen only in the susceptible BCG strain
